Read-outs that look alike come from different tables or passages of the source.
Columns and labels:
Escherichia coli 36 = test: Synergistic Protecting Effect on experimental mice infection; format: in vivo, ICR strain-mice (infected with Escherichia coli 36); conditions: combination 1:1 by weight, subcutaneous, one hour after i.p. challenge, survival over 4 days
Experimental: (i) Combination of Compound C (Compound of the present invention) and Ceftizoxime (known antimicrobial agent, hereinafter referred to as CZX) (1:1 by weight).
(ii) Combination of Compound C (Compound of the present invention) and Cefazolin (known antimicrobial agent, hereinafter referred to as CEZ) (1:1 by weight).
4-week-old male ICR strain-mice, weighing 21.5±1.5 g.
1.1×10^5 Colony forming unit of Escherichia coli 36 suspended in 0.5 ml of 5% mucin were intraperitoneally injected.
One hour after challenge, mice were treated subcutaneously with various doses of test compound. The ED50 values were calculated by the probit method from the number of mice surviving 4 days of observation.

[1] = tested on: Staphylococcus aureus 209P JC-1; test: in vitro antimicrobial activity, two-fold agar-plate dilution method (MIC); format: cell-based; conditions: S. aureus 209P JC-1, HI-agar, 37° C., 20 hours
Experimental: (§1) In vitro Antimicrobial activity was determined by the two-fold agar-plate dilution method as described below.
(§2) One loopful of an overnight culture of each test strain in Trypticase-soy broth (10^6 viable cells per ml) was streaked on heart infusion agar (HI-agar) containing graded concentrations of the test compound, and the minimal inhibitory concentration (MIC) was expressed in terms of μg/ml after incubation at 37° C. for 20 hours.

[2] = tested on: Esherichia coli NIHJ JC-2; test: as above; format: cell-based; conditions: Escherichia coli, NIHJJC2; E. coli NIHJ JC-2; HI-agar, 37° C., 20 hours
Experimental: as §1, §2

R-TEM Penicillinase = R-TEM Penicillinase (Escherichia coli, UniProt P62593); test: Inactivation of β-Lactamase, direct spectrophotometric assay with chromogenic cephalosporin; format: biochemical, Escherichia coli 18; conditions: 100 μg/ml, 5 minutes at 37° C.
Ia Cephalosporinase = Ia Cephalosporinase (Enterobacter cloacae, UniProt P05364); test: as above; format: biochemical, Enterobacter cloacae 91; conditions: 5 min, read-out: Inactivation (%)
Experimental: Ia Cephalosporinase derived from Enterobacter cloacae 91.
Test compound solution (100 μg/ml) was incubated for 5 minutes at 37° C. with β-lactamase before determination of enzymatic activity. β-Lactamase activity was measured by direct spectrophotometric assay using a chromogenic cephalosporin as a substrate. The extent of inactivation was expressed as percent ratio of inactivated activity.

Sequence of Ia Cephalosporinase (P05364 21-381): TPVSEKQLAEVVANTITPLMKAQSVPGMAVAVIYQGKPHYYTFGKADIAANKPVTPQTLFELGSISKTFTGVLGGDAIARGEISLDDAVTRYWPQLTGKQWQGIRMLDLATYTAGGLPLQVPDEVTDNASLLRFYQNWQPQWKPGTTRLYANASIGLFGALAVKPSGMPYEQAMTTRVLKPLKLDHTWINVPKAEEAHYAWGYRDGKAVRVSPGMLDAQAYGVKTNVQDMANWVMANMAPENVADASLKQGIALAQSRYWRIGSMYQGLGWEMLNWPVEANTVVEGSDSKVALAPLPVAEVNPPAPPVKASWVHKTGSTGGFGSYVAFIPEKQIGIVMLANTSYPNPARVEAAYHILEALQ
Sequence of R-TEM Penicillinase (P62593 24-286 limits assumed): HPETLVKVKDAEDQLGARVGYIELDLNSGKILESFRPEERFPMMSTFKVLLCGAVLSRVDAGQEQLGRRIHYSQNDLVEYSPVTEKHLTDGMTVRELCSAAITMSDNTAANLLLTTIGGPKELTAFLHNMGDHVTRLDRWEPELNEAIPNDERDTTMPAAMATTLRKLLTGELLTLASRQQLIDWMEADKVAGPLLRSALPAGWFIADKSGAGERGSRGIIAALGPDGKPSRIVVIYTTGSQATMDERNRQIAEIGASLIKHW

Row | Compound | ED50 values (Escherichia coli 36; (ii) with CEZ) | ED50 values (Escherichia coli 36; (i) with CZX) | MIC [1] | MIC [2] | Inactivation (%) (R-TEM Penicillinase) | also measured
1 | Cc1nnc(SCC2=C(C(=O)O)N3C(=O)[C@@H](NC(=O)Cn4cnnn4)[C@H]3SC2)s1 [CEZ, Cefazolin, reference compound] | 20.8 mg/kg | – | – | – | – | –
2 | CO/N=C(\C(=O)N[C@@H]1C(=O)N2C(C(=O)O)=CCS[C@H]12)c1csc(N)n1 [CZX, Ceftizoxime, reference compound] | – | 3.42 mg/kg | – | – | – | –
3 | CC(C)(O)[C@@H]1C(=O)N2C(C(=O)[O-])=C(Sc3ccncc3)C[C@H]12.[Na+] [Compound A, Sodium (5R, 6R)-3-(4-pyridylthio)-6-(1-hydroxy-1-methylethyl)-7-oxo-1-azabicyclo[3.2.0]hept-2-ene-2-carboxylate] | – | – | 0.1 µg/mL | 0.1 µg/mL | – | –
4 | Cc1nnc(SC2=C(C(=O)[O-])N3C(=O)[C@@H](C(C)(C)O)[C@H]3C2)s1.[K+] [Compound B, Potassium (5R, 6R)-3-(5-methyl-1,3,4-thiadiazol-2-ylthio)-6-(1-hydroxy-1-methylethyl)-7-oxo-1-azabicyclo[3.2.0]hept-2-ene-2-carboxylate] | – | – | 0.2 µg/mL | 0.2 µg/mL | – | –
5 | CC(C)(O)[C@H]1C(=O)N2C(C(=O)[O-])=C(Sc3ccncc3)C[C@H]12.[Na+] [Compound C, Sodium (5R,6S)-3-(4-pyridylthio)-6-(1-hydroxy-1-methylethyl)-7-oxo-1-azabicyclo[3.2.0]hept-2-ene-2-carboxylate] | > 112 mg/kg | > 112 mg/kg | – | – | > 95% | inhibition at 100 µg/mL (Ia Cephalosporinase; 100 μg/ml, 5 minutes at 37° C., Ia Cephalosporinase): > 95%
6 | Cn1nnnc1SC1=C(C(=O)[O-])N2C(=O)[C@@H](C(C)(C)O)[C@H]2C1.[K+] [Compound D, Potassium (5R,6R)-3-(1-methyl-1H-tetrazol-5-ylthio)-6-(1-hydroxy-1-methylethyl)-7-oxo-1-azabicyclo[3.2.0]hept-2-ene-2-carboxylate] | – | – | – | – | > 95% | inhibition at 100 µg/mL (Ia Cephalosporinase): > 95%

— patent US4640915A, “1-azabicyclo[3.2.0]hept-2-ene-2-carboxylic acid derivatives” (Fujisawa Pharmaceutical Co., Ltd., priority 1982, dated 1987)
